In patent US20250333406A1, “SULFONYL CYCLIC DERIVATIVES, AND COMPOSITIONS AND METHODS THEREOF” (Lysoway Therapeutics, Inc., priority 2023, published 2025):

System: TFEB
Assay: TFEB Nuclear Translocation Assay
Type: cell-based
Conditions: read-out: EC50 of TFEB activation

Compound	EC50 [µM]
CC(C)S(=O)(=O)n1ccc(S(=O)(=O)n2nc(N3CCN(S(C)(=O)=O)CC34CC4)c3c(Cl)cc(F)cc32)c1 [Compound 183, 4-chloro-6-fluoro-1-((1-(isopropylsulfonyl)-1H-pyrrol-3-yl)sulfonyl)-3-(7-(methylsulfonyl)-4,7-diazaspiro [2.5]octan-4-yl)-1H-indazole]	1 to 10
CC(C)S(=O)(=O)n1ccc(S(=O)(=O)n2nc(N3CCCC3C(F)(F)F)c3c(Cl)cc(F)cc32)c1 (stereo not shown) [Compound 184, 4-chloro-6-fluoro-1-(1-isopropylsulfonylpyrrol-3-yl)sulfonyl-3-[2-(trifluoromethyl)pyrrolidin-1-yl]indazole]	≤ 1
CC(C)S(=O)(=O)n1ccc(S(=O)(=O)n2nc(N3CCN(c4ncc(F)cn4)CC3(C)C)c3c(Cl)cc(F)cc32)c1 [Compound 185, 4-chloro-6-fluoro-3-[4-(5-fluoropyrimidin-2-yl)-2,2-dimethyl-piperazin-1-yl]-1-(1-isopropylsulfonylpyrrol-3-yl) sulfonyl-indazole]	≤ 1
CC(C)S(=O)(=O)n1ccc(S(=O)(=O)n2nc(N3CCC(N(C)C)CC34CC4)c3c(Cl)cc(F)cc32)c1 (stereo not shown) [Compound 186, 4-[4-chloro-6-fluoro-1-(1-isopropylsulfonylpyrrol-3-yl)sulfonyl-indazol-3-yl]-N, N-dimethyl-4-azaspiro [2.5]octan-7-amine]	1 to 10
CC(C)S(=O)(=O)n1ccc(S(=O)(=O)n2nc(N3CCCC34CC4)c3c(Cl)cc(F)cc32)c1 [Compound 188, 3-(4-azaspiro [2.4]heptan-4-yl)-4-chloro-6-fluoro-1-(1-isopropylsulfonylpyrrol-3-yl) sulfonyl-indazole]	≤ 1
CC(C)S(=O)(=O)n1ccc(S(=O)(=O)n2nc(N3CCOCC34CC4)c3c(Cl)cc(F)cc32)c1 [Compound 190, 4-[4-chloro-6-fluoro-1-(1-isopropylsulfonylpyrrol-3-yl)sulfonyl-indazol-3-yl]-7-oxa-4-azaspiro [2.5]octane]	≤ 1
CC(C)S(=O)(=O)n1ccc(S(=O)(=O)n2nc(N3CCC(F)(F)CC34CC4)c3c(Cl)cc(F)cc32)c1 [Compound 191, 4-chloro-3-(7,7-difluoro-4-azaspiro [2.5]octan-4-yl)-6-fluoro-1-(1-isopropylsulfonylpyrrol-3-yl) sulfonyl-indazole]	≤ 1
CC(C)S(=O)(=O)n1ccc(S(=O)(=O)n2nc(N3CCC(F)CC34CC4)c3c(Cl)cc(F)cc32)c1 (stereo not shown) [Compound 192, 4-chloro-6-fluoro-3-(7-fluoro-4-azaspiro [2.5]octan-4-yl)-1-(1-isopropylsulfonylpyrrol-3-yl) sulfonyl-indazole]	≤ 1
CC(C)S(=O)(=O)c1nc(S(=O)(=O)n2nc(N3CCN(c4ncc(Cl)cc4F)CC34CC4)c3c(F)ccc(F)c32)cs1 [Compound 193, 4-[3-[7-(5-chloro-3-fluoro-2-pyridyl)-4,7-diazaspiro [2.5]octan-4-yl]-4,7-difluoro-indazol-1-yl]sulfonyl-2-isopropylsulfonyl-thiazole]	1 to 10
CC(C)S(=O)(=O)c1nc(S(=O)(=O)n2nc(N3CCN(c4ncc(F)cc4F)CC34CC4)c3c(F)ccc(F)c32)cs1 [Compound 194, 4-[3-[7-(3,5-difluoro-2-pyridyl)-4,7-diazaspiro [2.5]octan-4-yl]-4,7-difluoro-indazol-1-yl]sulfonyl-2-isopropylsulfonyl-thiazole]	1 to 10
CC(C)S(=O)(=O)c1nc(S(=O)(=O)n2nc(N3CCN(c4ncc(F)cc4F)CC34CC4)c3c(Cl)cc(F)cc32)cs1 [Compound 197, 4-[4-chloro-3-[7-(3,5-difluoro-2-pyridyl)-4,7-diazaspiro [2.5]octan-4-yl]-6-fluoro-indazol-1-yl]sulfonyl-2-isopropylsulfonyl-thiazole]	1 to 10
CC(C)S(=O)(=O)c1nc(S(=O)(=O)n2nc(N3CCN(c4ncc(F)cc4F)CC34CC4)c3c(F)cc(F)cc32)cs1 [Compound 198, 4-((3-(7-(3,5-difluoropyridin-2-yl)-4,7-diazaspiro [2.5]octan-4-yl)-4,6-difluoro-1H-indazol-1-yl)sulfonyl)-2-(isopropylsulfonyl) thiazole]	1 to 10
CC(C)S(=O)(=O)n1ccc(S(=O)(=O)n2nc(N3CCN(c4ncc(F)cc4F)CC34CC4)c3c(Cl)cc(F)cc32)n1 [Compound 199, 4-chloro-3-[7-(3,5-difluoro-2-pyridyl)-4,7-diazaspiro [2.5]octan-4-yl]-6-fluoro-1-(1-isopropylsulfonylpyrazol-3-yl) sulfonyl-indazole]	≤ 1

Now from value to compound:

EC50 [µM]	Compound
≤ 1	CC(C)S(=O)(=O)n1ccc(S(=O)(=O)n2nc(N3CCN(c4ncc(F)cn4)CC34CCC4)c3c(Cl)cc(F)cc32)c1 [Compound 179, 4-chloro-6-fluoro-3-(8-(5-fluoropyrimidin-2-yl)-5,8-diazaspiro [3.5]nonan-5-yl)-1-((1-(isopropylsulfonyl)-1H-pyrrol-3-yl)sulfonyl)-1H-indazole]
≤ 1	[2H]c1c(S(=O)(=O)n2nc(N3CCN(c4ncc(F)cn4)CC34CC4)c3c(Cl)cc(F)cc32)c([2H])n(S(=O)(=O)C(C)C)c1[2H] [Compound 180, 4-chloro-6-fluoro-3-[7-(5-fluoropyrimidin-2-yl)-4,7-diazaspiro [2.5]octan-4-yl]-1-(2,4,5-trideuterio-1-isopropylsulfonyl-pyrrol-3-yl) sulfonyl-indazole]
≤ 1	[2H]c1c(S(=O)(=O)n2nc(N3CCN(c4ncc(F)cn4)CC34CC4)c3c(Cl)cc(F)cc32)c([2H])n(S(=O)(=O)C(C)(C)Cl)c1[2H] [Compound 181, 4-chloro-1-[1-(1-chloro-1-methyl-ethyl)sulfonyl-2,4,5-trideuterio-pyrrol-3-yl]sulfonyl-6-fluoro-3-[7-(5-fluoropyrimidin-2-yl)-4,7-diazaspiro[2.5]octan-4-yl]indazole]
≤ 1	CC(C)S(=O)(=O)n1ccc(S(=O)(=O)n2nc(N3CCN(c4c(F)cccc4F)CC34CC4)c3c(Cl)cc(F)cc32)c1 [Compound 182, 4-chloro-3-(7-(2,6-difluorophenyl)-4,7-diazaspiro [2.5]octan-4-yl)-6-fluoro-1-((1-(isopropylsulfonyl)-1H-pyrrol-3-yl)sulfonyl)-1H-indazole]
≤ 1	CC(C)S(=O)(=O)n1ccc(S(=O)(=O)n2nc(N3CCC(=O)CC34CC4)c3c(Cl)cc(F)cc32)c1 [Compound 187, 4-[4-chloro-6-fluoro-1-(1-isopropylsulfonylpyrrol-3-yl)sulfonyl-indazol-3-yl]-4-azaspiro [2.5]octan-7-one]
≤ 1	CC(C)S(=O)(=O)n1ccc(S(=O)(=O)n2nc(N3CCC34CCC4)c3c(Cl)cc(F)cc32)c1 [Compound 189, 3-(1-azaspiro [3.3]heptan-1-yl)-4-chloro-6-fluoro-1-(1-isopropylsulfonylpyrrol-3-yl) sulfonyl-indazole]
1 to 10	CC(C)S(=O)(=O)c1nc(S(=O)(=O)n2nc(N3CCN(c4ncc(F)cn4)CC34CC4)c3c(F)ccc(F)c32)cs1 [Compound 195, 4-((4,7-difluoro-3-(7-(5-fluoropyrimidin-2-yl)-4,7-diazaspiro 12.51 octan-4-yl)-1H-indazol-1-yl)sulfonyl)-2-(isopropylsulfonyl) thiazole]
≤ 1	CC(C)S(=O)(=O)c1nc(S(=O)(=O)n2nc(N3CCN(c4ncc(Cl)cc4F)CC34CC4)c3c(Cl)cccc32)cs1 [Compound 196, 4-((4-chloro-3-(7-(5-chloro-3-fluoropyridin-2-yl)-4,7-diazaspiro [2.5]octan-4-yl)-1H-indazol-1-yl)sulfonyl)-2-(isopropylsulfonyl) thiazole]
≥ 10	CC(C)S(=O)(=O)n1cnc(S(=O)(=O)n2nc(N3CCN(c4ncc(F)cc4F)CC34CC4)c3c(F)cc(F)cc32)n1 [Compound 200, 3-(7-(3,5-difluoropyridin-2-yl)-4,7-diazaspiro [2.5]octan-4-yl)-4,6-difluoro-1-((1-(isopropylsulfonyl)-1H−1,2,4-triazol-3-yl)sulfonyl)-1H-indazole]
